The values that follow come from ChEMBL document CHEMBL1129821, “Synthesis and biological evaluation of non-polyene analogs of amphotericin B” (1997).

For assay [1], the system named is Candida albicans. The assay can be described thus: Minimum inhibitory concentration required for antifungal activity against Candida albicans(16820). It counts as functional.
Assay [2] has as its system Cryptococcus neoformans. The assay can be described thus: Minimum inhibitory concentration required for antifungal activity against Cryptococcus neoformans (271A). It counts as functional.

Values after ≈ are worked out from the molar mass of the structure shown.

As for `COC(=O)[C@H]1[C@@H]2C[C@@H](O[C@@H]3O[C@H](C)[C@@H](O)[C@H](N)[C@@H]3O)/C=C/C=C/C=C/C=C/C=C/C=C/C=C/[C@H](C)[C@@H](O)[C@@H](C)[C@H](C)OC(=O)C[C@H](O)C[C@H](O)CC[C@@H](O)[C@H](O)C[C@H](O)C[C@](O)(C[C@@H]1O)O2` [AMPHOTERICIN B ME ESTER], the MIC in assay [1] and in assay [2] was 8000 µg/mL (≈ 8.53 mM) each time.
